Legend:
Type in all cases: cell-based
[1] = tested on: outer membrane of E. coli NDM-1; assay: Enzyme assay, outer membrane leakage (β-lactamase release, CENTA); conditions: peptide 0.63 or 1.30 uM, 37° C., 1 h; 200 μM CENTA
Description: (§1) It was observed, through an enzyme assay, whether the sensitizing peptide destroyed the outer and inner membranes of Gram-negative bacteria. In the presence of the sensitizing peptide, it was observed whether in a case where 1.5 mM ONPG was used together therewith, β-galactosidase was released from E. coli ATCC 25922 for the inner membrane, and whether in a case where 200 μM CENTA was used together therewith, β-lactamase was released from E. coli NDM-1 for the outer membrane.
Specifically, to determine leakage of the outer membrane, activity of the β-lactamase released from the outer membrane was evaluated. New Delhi metallo-β-lactamase-1 (NDm-1)-producing E. coli cells were washed three times with DPBS and suspended in the same buffer. The cells were diluted to an OD600 of 0.2 and treated with the peptide at a concentration of 0.63 or 1.30 uM at 37° C. for 1 h. After centrifugation, the supernatant was incubated with 200 μM CENTATM β-lactamase substrate at 37° C. for 1 hour. An optical density was obtained by measuring absorbance of a product of enzyme reaction at 405 nm using a microplate reader (Molecular Devices Co., Menlo Park, Calif.).
The results are illustrated in FIGS. 12A and 12B. The y-axis is absorbance measured at 405 nm, and higher absorbance is observed as a higher amount of β-lactamase is released due to destruction of the membrane.

[2] = tested on: inner membrane of E. coli ATCC 25922; assay: Enzyme assay, inner membrane leakage (β-galactosidase release, ONPG); conditions: 1.5 mM ONPG
Description: as §1
To determine leakage of the inner membrane, release of the cytoplasmic enzyme β-galactosidase was evaluated. The bacteria were diluted to OD600=1 and 1.5 mM ONPG (O-nitrophenyl-β-D-galactopyranoside) was added. Absorbance of a product of enzyme reaction was measured at 420 nm. The other procedures were carried out in the same manner as in the experiment for outer membrane destruction.

[3] = tested on: human red blood cells (hRBC); assay: Hemolysis assay; conditions: hRBCs, 37° C., 4 hours
Description: To identify toxicity of the peptides, human red blood cell (hRBC) hemolytic activity assay (hemolysis assay) was performed.
Specifically, percent hemolysis of human red blood cells (hRBC) was determined by comparing the cells incubated in 100% deionized water (DW) as a positive control and peptide-free PBS as a negative control. hRBCs were washed 3 times with PBS using centrifugation at 500 g for 5 min, and 5% (v/v) hematocrit was suspended in PBS buffer (Hyclone). The peptide was diluted using 2-fold serial dilution with PBS, and hRBCs were added at 2.5×10^8 cells to each well. The sample was incubated at 37° C. for 4 hours. After centrifugation at 1400 rpm for 5 minutes, 180 μL of the supernatant was transferred to a transparent flat-bottom 96-well plate. An amount of hemoglobin released by the peptide was determined by measuring absorbance at 405 nm using an EPOCH2 microplate reader (BioTek, Winooski, USA).
Hemolytic activity (%)=(absorbance of sample−absorbance of PBS)/(absorbance of 100% DW−A405 of PBS)×100

CC[C@H](C)[C@H](NC(=O)CN)C(=O)NCC(=O)N[C@@H](C)C(=O)N[C@H](C(=O)N[C@@H](CC(C)C)C(=O)N[C@@H](CCCCN)C(=O)N[C@H](C(=O)N[C@@H](CC(C)C)C(=O)N[C@H](C(=O)N[C@H](C(=O)NCC(=O)N[C@@H](CC(C)C)C(=O)N1CCC[C@H]1C(=O)N[C@@H](C)C(=O)N[C@@H](CC(C)C)C(=O)N[C@H](C(=O)N[C@@H](CO)C(=O)N[C@@H](Cc1c[nH]c2ccccc12)C(=O)N[C@H](C(=O)N[C@@H](CCCCN)C(=O)N[C@@H](CCCNC(=N)N)C(=O)N[C@@H](CCCCN)C(=O)N[C@@H](CCCNC(=N)N)C(=O)N[C@@H](CCC(N)=O)C(=O)N[C@@H](CCC(N)=O)C(N)=O)[C@@H](C)CC)[C@@H](C)CC)[C@@H](C)O)[C@@H](C)O)C(C)C)C(C)C [melittin, reference compound]
destruction of outer membrane (β-lactamase release) [1]: destroyed both the inner and outer membranes of bacteria | destruction of inner membrane (β-galactosidase release) [2]: destroyed both the inner and outer membranes of bacteria | hemolytic activity [3]: exhibited hemolysis of hRBCs starting from low concentrations

Reference: patent US20230181678A1, “NOVEL ANTIBACTERIAL PEPTIDE OR PEPTIDE ANALOG AND USE THEREOF” (CAMP THERAPEUTICS INC., priority 2020, published 2023)
